Assay results published in patent US7989451B2, “Tricyclic 1,2,4-triazine oxides and compositions for therapeutic use in cancer treatments” (Auckland Uniservices Limited, priority 2005, dated 2011).
Where two headings read alike, the source gives them in different places.

What was measured:
[1] = test system: human colon carcinoma HT29; assay: Proliferation assay (IC50) under aerobic and hypoxic conditions, HT29; type: cell-based; conditions: for IC50: Homo sapiens, 4 h drug exposure, sulforhodamine B
Procedure, shortened: (§1)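 HT29 (1100) and SiHa (1500) cells in αMEM with 17 mM glucose and 100 μM 2′-dCyd, exposed 4 h at 37 °C to 3-fold dilutions under 20% O2 or anoxia (<0.001% O2). Regrowth 5 (oxic) or 6 (anoxic) days; IC50 by sulforhodamine B. HCR = IC50 aerobic/IC50 hypoxic.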

[2] = test system: human cervical carcinoma SiHa; assay: Proliferation assay (IC50) under aerobic and hypoxic conditions, SiHa; type: cell-based; conditions: for IC50: Homo sapiens, 4 h drug exposure, sulforhodamine B
Procedure, shortened: as §1

[3] = test system: hypoxic cells in HT29 tumours; assay: HT29 excision assay, single dose in combination with radiation; type: in vivo, CD-1 nude mice
Procedure: HT29 Excision assay. In vivo activity of single dose of compound 77 in combination with radiation. The activity of compound 77 against hypoxic cells in HT29 tumours is illustrated in FIG. 1. Subcutaneous HT29 tumours (average of two largest diameters 8-10 mm) were grown by inoculating 10^7 cells (obtained by enzymatic dissociation of multicellular spheroids) into CD-1 nude mice. Cmpd 77 was administered as a single i.p. dose (560 μmol/kg, which is 75% of the maximum tolerated dose) alone or 5 min after radiation (20 Gy). Tumours were excised 18 h after treatment and plated to determine the number of clonogens/g tumour tissue.

[4] = test system: H460, non-small cell lung carcinoma; assay: Fractionated tumour excision assay, H460 xenograft; type: in vivo, CD-1 nude mice; conditions: for log cell kill compared to radiation alone: i.p. at 100% of MTD twice daily for 4 days, 30 min before each of 8×2.5 Gy, excised 18 hr after treatment
Procedure: (§2) FIG. 3 illustrates by way of a plot the activity of fractionated dose TPZ and compound 77 against hypoxic cells in three human tumour xenograft models: H460, non-small cell lung carcinoma; HT29, human colon carcinoma; SiHa, human cervical carcinoma. Drugs (1.0× fractionated MTD) were administered 30 min before each of 8×2.5 Gy doses of radiation.
(§3) The activity of multiple doses of compound 77 and TPZ against hypoxic cells in three human tumour xenografts is illustrated in FIG. 3. Subcutaneous tumours (average of two largest diameters 8-10 mm) were grown by inoculating 10^7 cells into the midline of the back in CD-1 nude mice. Drugs were administered by i.p. injection at 100% of the MTD for twice daily (9 am, 3 pm) administration for 4 days, either alone or 30 min before each of 8×2.5 Gy local irradiation of the tumour. Tumours were excised 18 hr after treatment and plated to determine the number of clonogens/g tumour tissue. Antitumour activity is measured as logs of cell kill in addition to the cell kill observed for radiation alone.

[5] = test system: HT29, human colon carcinoma; assay: Fractionated tumour excision assay, HT29 xenograft; type: in vivo, CD-1 nude mice; conditions: for log cell kill compared to radiation alone: i.p. at 100% of MTD twice daily for 4 days, 30 min before each of 8×2.5 Gy, excised 18 hr after treatment
Procedure: as §2, §3

[6] = test system: SiHa, human cervical carcinoma; assay: Fractionated tumour excision assay, SiHa xenograft; type: in vivo, CD-1 nude mice; conditions: for log cell kill compared to radiation alone: i.p. at 100% of MTD twice daily for 4 days, 30 min before each of 8×2.5 Gy, excised 18 hr after treatment
Procedure: as §2, §3

[7] = hypoxic cytotoxicity ratio = IC50 aerobic/IC50 hypoxic
[8] = fractionated drug plus 8×2.5 Gy radiation

| SMILES | IC50 ([1]; HT-29, hypoxic (anaerobic chamber, <0.001% O2), then 6 days growth, read-out: IC50 (μM) hypoxic) [µM] | IC50 ([1]; HT-29, oxic (20% O2), then 5 days growth, read-out: IC50 (μM) oxic) [µM] | HCR [1, 7] | IC50 ([2]; hypoxic (anaerobic chamber, <0.001% O2), then 6 days growth, read-out: IC50 (μM) hypoxic) [µM] | IC50 ([2]; oxic (20% O2), then 5 days growth, read-out: IC50 (μM) oxic) [µM] | HCR [2, 7] | Hypoxic cytotoxicity: difference in clonogens/g tumour tissue between radiation-only and radiation+drug groups ([3]; single i.p. dose 560 μmol/kg (75% of MTD) 5 min after radiation (20 Gy), tumours excised 18 h after treatment, ANOVA and Dunnett's test) | Selectivity for hypoxic cells: activity with radiation versus as a single agent ([3]; single i.p. dose 560 μmol/kg alone or 5 min after radiation (20 Gy)) | killing relative to TPZ [4, 8] | log cell kill compared to radiation alone [4] | killing relative to TPZ [5, 8] | log cell kill compared to radiation alone [5] | log cell kill in addition to radiation alone, 77 plus radiation relative to TPZ plus radiation ([6]; SiHa tumours, p<0.05, Student's t-test) | killing relative to TPZ ([6]; SiHa, fractionated drug plus 8×2.5 Gy radiation) | log cell kill compared to radiation alone ([6]; SiHa) |
| --- | --- | --- | --- | --- | --- | --- | --- | --- | --- | --- | --- | --- | --- | --- | --- |
| [O-][n+]1nc(CCCN2CCOCC2)[n+]([O-])c2cc3c(cc21)CCC3 [Compound 77, 3-[3-(4-Morpholinyl)propyl]-7,8-dihydro-6H-indeno[5,6-e][1,2,4]triazine 1,4-Dioxide] | 2.8 ± 0.6 | 349 ± 62 | 127 ± 12 | 1.4 ± 0.3 | 302 ± 48 | 223 ± 14 | statistically significant (p<0.05) | greater activity of 77 with radiation than as a single agent | greater killing than TPZ | significantly (P<0.05) greater log cell kill | greater killing than TPZ | significantly (P<0.05) greater log cell kill | significantly greater | greater killing than TPZ | significantly (P<0.05) greater log cell kill |
| Nc1n[n+]([O-])c2ccccc2[n+]1[O-] [TPZ, tirapazamine, reference compound] | – | – | – | – | – | – | – | – | – | significantly (P<0.05) greater log cell kill | – | significantly (P<0.05) greater log cell kill | – | – | significantly (P<0.05) greater log cell kill |
